Values quoted from earlier work in patent US20120097160A1, “AGGLOMERATE FORMULATIONS INCLUDING ACTIVE PHARMACEUTICAL AGENTS WITH TARGETED PARTICLE SIZES” (SCHERING CORPORATION, priority 2009, published 2012).
Where two headings read alike, the source gives them in different places.

- solubility (acetone): soluble
- solubility (chloroform): soluble
- solubility (ethanol): slightly soluble
- solubility (isopropanol): slightly soluble
- solubility (methanol): slightly soluble
- solubility (tetrahydrofuran): freely soluble
- solubility (water): practically insoluble
SMILES: C[C@@H]1C[C@H]2[C@@H]3CCC4=CC(=O)C=C[C@]4(C)[C@@]3(Cl)[C@@H](O)C[C@]2(C)[C@@]1(OC(=O)c1ccco1)C(=O)CCl [Mometasone furoate, 9,21-Dichloro-11(beta), 17-dihydroxy-16(alpha)-methylpregna-1,4-diene-3,20-dione 17-(2 furoate)]
